According to ChEMBL document CHEMBL1909046, “DrugMatrix in vitro pharmacology data”:

Biological target: T1, Angiotensin-converting enzyme (Oryctolagus cuniculus, UniProt P12822)
T1 sequence (P12822 whole entry): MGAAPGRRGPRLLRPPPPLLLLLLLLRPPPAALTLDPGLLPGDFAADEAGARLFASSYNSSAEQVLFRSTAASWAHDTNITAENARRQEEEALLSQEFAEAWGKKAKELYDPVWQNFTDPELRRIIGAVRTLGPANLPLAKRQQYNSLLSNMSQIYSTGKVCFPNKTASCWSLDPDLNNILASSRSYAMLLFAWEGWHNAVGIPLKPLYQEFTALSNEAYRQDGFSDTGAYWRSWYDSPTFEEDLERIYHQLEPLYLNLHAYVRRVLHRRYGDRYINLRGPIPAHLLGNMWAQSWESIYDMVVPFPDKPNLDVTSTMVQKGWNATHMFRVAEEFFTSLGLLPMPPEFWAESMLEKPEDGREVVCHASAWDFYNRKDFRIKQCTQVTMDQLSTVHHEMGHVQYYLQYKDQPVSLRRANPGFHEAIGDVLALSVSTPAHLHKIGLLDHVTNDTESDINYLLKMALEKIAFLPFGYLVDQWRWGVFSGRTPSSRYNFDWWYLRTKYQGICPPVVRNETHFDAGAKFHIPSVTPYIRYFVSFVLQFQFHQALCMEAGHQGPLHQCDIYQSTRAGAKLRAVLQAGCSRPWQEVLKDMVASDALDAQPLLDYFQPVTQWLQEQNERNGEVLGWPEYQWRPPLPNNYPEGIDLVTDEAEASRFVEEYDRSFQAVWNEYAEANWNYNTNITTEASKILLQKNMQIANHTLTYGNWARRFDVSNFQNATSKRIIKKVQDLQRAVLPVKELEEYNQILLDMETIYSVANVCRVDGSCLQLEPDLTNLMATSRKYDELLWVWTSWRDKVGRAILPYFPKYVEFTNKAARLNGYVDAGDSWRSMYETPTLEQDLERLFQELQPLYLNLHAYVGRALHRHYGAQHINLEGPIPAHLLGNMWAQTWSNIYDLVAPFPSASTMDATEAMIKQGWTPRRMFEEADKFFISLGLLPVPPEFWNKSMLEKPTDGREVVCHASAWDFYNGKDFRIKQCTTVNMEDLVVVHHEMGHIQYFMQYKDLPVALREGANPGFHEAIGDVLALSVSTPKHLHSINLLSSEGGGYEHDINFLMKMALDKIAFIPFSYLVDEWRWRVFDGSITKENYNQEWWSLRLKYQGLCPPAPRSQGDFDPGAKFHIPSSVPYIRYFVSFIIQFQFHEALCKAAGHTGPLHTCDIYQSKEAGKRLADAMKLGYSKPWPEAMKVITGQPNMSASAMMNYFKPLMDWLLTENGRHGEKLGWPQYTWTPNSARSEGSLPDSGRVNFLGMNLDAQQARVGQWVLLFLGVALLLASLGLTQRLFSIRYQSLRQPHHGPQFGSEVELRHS
Test: biochemical
Type: tissue-based, Lung
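Further: enzymatic inhibition of angiotensin-converting enzyme measured with FAPGG as the substrate; in other assays of this panel Not Active means under 50% inhibition at 10 µM.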

Compound	IC50
O=C1c2ccccc2C(=O)C1c1ccccc1 [PHENINDIONE]	Not Active
Clc1cc(Cl)c(OCC#CI)cc1Cl [HALOPROGIN]	Not Active
C[C@H]1C[C@H]2[C@@H]3CCC4=CC(=O)C=C[C@]4(C)[C@@]3(F)[C@@H](O)C[C@]2(C)[C@@]1(O)C(=O)CO [BETAMETHASONE]	Not Active
COc1ccc(Cl)cc1C(=O)NCCc1ccc(S(=O)(=O)NC(=O)NC2CCCCC2)cc1 [GLYBURIDE]	Not Active
CC1(COc2ccc(CC3SC(=O)NC3=O)cc2)CCCCC1 (stereo not drawn) [CIGLITAZONE]	Not Active
Cc1ccnc2c1NC(=O)c1cccnc1N2C1CC1 [NEVIRAPINE]	Not Active
CNC[C@H](O)c1ccc(O)c(O)c1 [EPINEPHRINE]	Not Active
CCN1C[C@]2(COC)[C@H](O)C[C@H](OC)[C@@]34[C@@H]5C[C@@]6(O)[C@H](OC(=O)c7ccccc7)[C@@H]5[C@@](OC(C)=O)([C@@H]([C@H](OC)[C@H]23)[C@@H]14)[C@@H](O)[C@@H]6OC [ACONITINE]	Not Active
COc1ccc(C[C@H](N)C(=O)N[C@H]2[C@@H](O)[C@H](n3cnc4c(N(C)C)ncnc43)O[C@@H]2CO)cc1 [PUROMYCIN]	Not Active
NC(N)=Nc1nc(CSCCC(N)=NS(N)(=O)=O)cs1 [FAMOTIDINE]	Not Active
NC(=O)NC(=O)Cc1ccccc1 [PHENACEMIDE]	Not Active
NC(=O)CN1CCCC1=O	Not Active
O=C(O)c1ccccc1 [BENZOIC ACID]	Not Active
O=c1[nH]cnc2c1ncn2[C@H]1CC[C@@H](CO)O1 [DIDANOSINE]	Not Active
ClC1=C(Cl)[C@]2(Cl)[C@@H]3[C@@H]4C[C@@H]([C@H]5O[C@@H]45)[C@@H]3[C@@]1(Cl)C2(Cl)Cl [DIELDRIN]	Not Active
CC12CCC(CC1)C(C)(C)O2 [EUCALYPTOL]	Not Active
Nc1nc(N)c2nc(CNc3ccc(C(=O)N[C@@H](CCC(=O)O)C(=O)O)cc3)cnc2n1 [AMINOPTERIN]	Not Active

Compound	IC50
Nc1ccc(Cc2ccc(N)cc2)cc1	Not Active
CC(C)Cc1ccc([C@H](C)C(=O)O)cc1 [DEXIBUPROFEN]	Not Active
CO[C@H]1O[C@@H]2O[C@@]3(C)CC[C@H]4[C@H](C)CC[C@@H]([C@H]1C)[C@@]24OO3	Not Active
Nc1nc(F)nc2c1ncn2[C@@H]1O[C@H](CO)[C@@H](O)[C@@H]1O [FLUDARABINE]	Not Active
O=C(O)CO [GLYCOLIC ACID]	Not Active
CC12CCC(CC1=O)C2(C)C (stereo not drawn) [CAMPHOR]	Not Active
CCN1CCN(C(=O)N[C@@H](C(=O)N[C@@H]2C(=O)N3[C@@H]2SC(C)(C)[C@@H]3C(=O)O)c2ccccc2)C(=O)C1=O [PIPERACILLIN]	Not Active
C=CCO [ALLYL ALCOHOL]	Not Active
O=C(O)CCc1nc(-c2ccccc2)c(-c2ccccc2)o1 [OXAPROZIN]	Not Active
c1ccc2sc(SSc3nc4ccccc4s3)nc2c1 [BENZOTHIAZYL DISULFIDE]	Not Active
O=C1CN(/N=C/c2ccc([N+](=O)[O-])o2)C(=O)N1 [NITROFURANTOIN]	Not Active
NCC(CC(=O)O)c1ccc(Cl)cc1 (stereo not drawn) [BACLOFEN]	Not Active
OC[C@H]1O[C@@H]2O[C@H]3[C@H](O)[C@@H](O)[C@@H](O[C@H]4[C@H](O)[C@@H](O)[C@@H](O[C@H]5[C@H](O)[C@@H](O)[C@@H](O[C@H]6[C@H](O)[C@@H](O)[C@@H](O[C@H]7[C@H](O)[C@@H](O)[C@@H](O[C@H]8[C@H](O)[C@@H](O)[C@@H](O[C@H]1[C@H](O)[C@H]2O)O[C@@H]8CO)O[C@@H]7CO)O[C@@H]6CO)O[C@@H]5CO)O[C@@H]4CO)O[C@@H]3CO [BETADEX]	Not Active
CC(C)NCC(O)COc1ccc(CC(N)=O)cc1 (stereo not drawn) [ATENOLOL]	Not Active
Cl.NC[C@H]1CC[C@H](C(=O)Oc2ccc(CCC(=O)O)cc2)CC1 [CETRAXATE HYDROCHLORIDE]	Not Active
O=C(NCCN1CCOCC1)c1ccc(Cl)cc1 [MOCLOBEMIDE]	Not Active
